Data set [1] can be described thus: Stability of aqueous solution of bendamustine as a function of pH (hydrolysis). Type of data set: physicochemical.
The conditions of data set [2]: 4.2-5.5 mg/kg, 7 patients, cited from earlier work.
The conditions of data set [3]: B6D2F1-mice, absorption from the gastro-intestinal tract; cited from earlier work.

The structures appear in SMILES notation. Counter-ions that a name gives are not always drawn.

With `Cn1c(CCCC(=O)O)nc2cc(N(CCCl)CCCl)ccc21` [bendamustine, 4-[5-[bis(2-chloroethyl)amino]-1-methylbenzimidazo-2-yl]butanoic acid], the “pH above which significant hydrolytic decomposition is observed” value in data set [1] is “higher than 5”.
With `Cn1c(CCCC(=O)O)nc2cc(N(CCCl)CCCl)ccc21` [bendamustine hydrochloride], the mean oral bioavailability in data set [2] (25 mg capsules vs intravenous) is reported as 57%. Moreover, the “time to maximal plasma levels after oral administration” value in data set [2] (25 mg capsules) is not above 1 h. For the same compound, the bio-availability entry in data set [3] is recorded as “about 40%”.
